Biological target: T1, Neuromedin-K receptor (Homo sapiens, UniProt P29371)
T1 sequence (P29371 whole entry): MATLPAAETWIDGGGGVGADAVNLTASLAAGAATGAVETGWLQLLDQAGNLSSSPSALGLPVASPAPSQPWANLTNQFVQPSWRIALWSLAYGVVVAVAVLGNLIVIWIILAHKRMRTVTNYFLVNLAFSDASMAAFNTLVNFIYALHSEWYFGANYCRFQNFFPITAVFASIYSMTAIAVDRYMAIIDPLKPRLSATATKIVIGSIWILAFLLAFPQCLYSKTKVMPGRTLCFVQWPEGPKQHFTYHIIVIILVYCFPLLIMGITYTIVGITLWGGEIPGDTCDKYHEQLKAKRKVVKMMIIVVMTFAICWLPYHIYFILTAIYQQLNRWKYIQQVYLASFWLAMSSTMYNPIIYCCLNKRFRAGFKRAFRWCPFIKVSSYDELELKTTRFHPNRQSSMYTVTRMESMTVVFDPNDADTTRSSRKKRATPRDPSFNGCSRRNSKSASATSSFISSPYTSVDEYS
Assay: [3H]SR142801 Competition Binding Assay: hNK3 receptor binding experiment were performed using [3H]SR142801 (Catalog No. TRK1035, specific activity: 74.0 Ci/mmol, Amersham, GE Healthcare UK limited, Buckinghamshire, UK) and membrane isolated from HEK293 cells transiently expressing recombinant human NK3 receptor. After thawing, the membrane homogenates were centrifuged at 48,000×g for […] at 4° C., the pellets were resuspended in the 50 mM Tris-HCl, 4 mM MnCl2, 1 μM phosphoramidon, 0.1% BSA binding buffer at pH 7.4 to a final assay concentration of 5 μg protein/well. For inhibition experiments, membranes were incubated with [3H]SR142801 at a concentration equal to KD value of radioligand and 10 concentrations of the inhibitory compound (0.0003-10 μM) (in a total reaction volume of 500 μl) for 75 min at room temperature (RT). At the end of the incubation, membranes were filtered onto unitfilter (96-well white microplate with bonded GF/C filter preincubated 1 h in 0.3% PEI+0.3% BSA, Packard BioScience, Meriden, Conn.) with a Filtermate 196 harvester (Packard BioScience) and washed 4 times with ice-cold 50 mM Tris-HCl, pH 7.4 buffer. Nonspecific binding was measured in the presence of 10 μM SB222200 for both radioligands. […]
Format: cell membranes

| Structure (SMILES) | Ki [nM] |
| --- | --- |
| CCN(C(=O)Oc1ccc(F)cc1)[C@@H]1CN(C(=O)C2CCN(c3ccc(OC(C)=O)cn3)CC2)C[C@H]1c1ccc(Cl)cc1 | 6 |
| CCN(C(=O)Oc1ccc(F)cc1)[C@@H]1CN(C(=O)C2CCN(c3ccc(C(F)(F)F)cn3)CC2)C[C@H]1c1ccc(F)c(F)c1 | 9 |

From ChEMBL document CHEMBL3886745, “Pyrrolidine compounds” (2016)
